What was measured:
[1] = test system: H9C2 cell line; test: Ferroptosis induction treatment, cell viability by WST-8 assay, H9C2 cell line; format: cell-based, rat; settings: for cell viability level compared with ferroptosis inducer alone: with 50 nM RSL3, 2 μM elastin, 0.3 μM ML210, 0.3 μM ML162, 0.5 μM FIN56, 100 μM BSO or 5 μM FINO2, FIG. 2; for decrease in the cell viability level caused by ferroptosis inducer: with 100 μM BSO, 2 μM elastin, 50 nM RSL3 or 0.5 μM FIN56, FIG. 1
Description: Three different cell lines (the H9C2 cell line, which is a rat cardiac myoblast cell line, the NR[…] cell line, which is a rat kidney fibroblast, and the C2C12 cell line, which is a mouse myoblast cell line) were obtained from the American Type Culture Collection (ATCC); the Panc-1 cell line, which is a human pancreatic cancer cell line, was obtained the Cell Resource Center for Biomedical Research, Institute of Development, Aging and Cancer, Tohoku University/Cell Bank; and the HT22 cell line, which is a mouse hippocampus nerve cell line, was purchased from Merck Millipore Co. All the cell lines were subcultured in a Dulbecco's Modified Eagle Medium (DMEM) culture solution containing 100-fold diluted 1% penicillin-streptomycin (26253-84; manufactured by Nacalai Tesque, Inc.) (hereinafter simply referred to as “DMEM culture solution”) to which 10% fetal bovine serum (FBS) and 4.5 g glucose/L were added (hereinafter referred to as “DMEM [high glucose] culture solution”) under conditions of 5% CO2/20% O2 and 37° C. 4000 cells of five different cell lines (the H9C2 cell line, the Panc-1 cell line, the NR[…] cell line, the C2C12 cell line, and the HT22 cell line) were seeded on a 96-well plate and cultured overnight in a DMEM culture solution containing 1.0 g glucose/L (low glucose) and 1% FBS (hereinafter referred to as “DMEM [low glucose low serum] culture solution”). After the procedure of the above-mentioned, ferroptosis was induced in cells from the above-mentioned five different cell lines in the presence of each of […] of the present invention (vitamin K1, vitamin K2 [menaquinone-4], vitamin K3, or vitamin K3 hydroquinone) (see Table 1) or a known ferroptosis inhibitor (ferrostatin 1). Specifically, cells from the H9C2 cell line were cultured in the presence of each of six different test substances (10 μM vitamin K1 [manufactured by FUJIFILM Wako Pure Chemical Corporation], 10 μM menaquinone-4 [manufactured by Sigma-Aldrich], 3 μM or 1 μM menadione [manufactured by Sigma-Aldrich], 1 μM vitamin K3 hydroquinone [manufactured by Toronto Research Chemicals], or 0.3 μM ferrostatin 1 [manufactured by Cayman]) at various concentrations and each of eight different ferroptosis inducers (100 μM BSO [manufactured by Sigma-Aldrich], 1.5 μM or 2 μM elastin [manufactured by Cayman], 50 nM RSL3 [manufactured by Selleck Chemicals], 0.3 μM ML210 [manufactured by Cayman], 0.3 μM ML162 [manufactured by Cayman], 0.5 μM FIN56 [manufactured by Cayman], 5 μM FINO2 [manufactured by Cayman], or 4 mM glutamic acid [manufactured by Sigma-Aldrich]) for 60 hours for BSO treatment, for 48 hours for elastin treatment, RSL3 treatment, and FIN56 treatment, and for 24 hours for ML210 treatment, ML162 treatment, FINO2 treatment, and glutamic acid treatment. Cell viability levels were measured by WST-8 assay using Cell Count Reagent SF. The cell viability level was calculated as a relative value of the cell survival level when the cell viability level when cultured in the absence of a test substance and a ferroptosis inducer was set to 1.

[2] = test system: Panc-1 cell line; test: Ferroptosis induction treatment, cell viability by WST-8 assay, Panc-1 cell line; format: cell-based, human; settings: with 5 μM elastin, FIG. 3A
Description: (§1) Three different cell lines (the H9C2 cell line, which is a rat cardiac myoblast cell line, the NR[…] cell line, which is a rat kidney fibroblast, and the C2C12 cell line, which is a mouse myoblast cell line) were obtained from the American Type Culture Collection (ATCC); the Panc-1 cell line, which is a human pancreatic cancer cell line, was obtained the Cell Resource Center for Biomedical Research, Institute of Development, Aging and Cancer, Tohoku University/Cell Bank; and the HT22 cell line, which is a mouse hippocampus nerve cell line, was purchased from Merck Millipore Co. All the cell lines were subcultured in a Dulbecco's Modified Eagle Medium (DMEM) culture solution containing 100-fold diluted 1% penicillin-streptomycin (26253-84; manufactured by Nacalai Tesque, Inc.) (hereinafter simply referred to as “DMEM culture solution”) to which 10% fetal bovine serum (FBS) and 4.5 g glucose/L were added (hereinafter referred to as “DMEM [high glucose] culture solution”) under conditions of 5% CO2/20% O2 and 37° C. 4000 cells of five different cell lines (the H9C2 cell line, the Panc-1 cell line, the NR[…] cell line, the C2C12 cell line, and the HT22 cell line) were seeded on a 96-well plate and cultured overnight in a DMEM culture solution containing 1.0 g glucose/L (low glucose) and 1% FBS (hereinafter referred to as “DMEM [low glucose low serum] culture solution”). After the procedure of the above-mentioned, ferroptosis was induced in cells from the above-mentioned five different cell lines in the presence of each of five different vitamin K group compounds of the present invention (vitamin K1, vitamin K2 [menaquinone-4], vitamin K3, or vitamin K3 hydroquinone) (see Table 1) or a known ferroptosis inhibitor (ferrostatin 1). […] Cell viability levels were measured by WST-8 assay using Cell Count Reagent SF. The cell viability level was calculated as a relative value of the cell survival level when the cell viability level when cultured in the absence of a test substance and a ferroptosis inducer was set to 1.

[3] = test system: NRK49F cell line; test: Ferroptosis induction treatment, cell viability by WST-8 assay, NRK49F cell line; format: cell-based, rat; settings: with 500 μM BSO, FIG. 3B
Description: as §1

[4] = test system: C2C12 cell line; test: Ferroptosis induction treatment, cell viability by WST-8 assay, C2C12 cell line; format: cell-based, mouse; settings: with 500 μM BSO, FIG. 3C
Description: as §1

[5] = test system: HT22 cell line; test: Ferroptosis induction treatment (glutamic acid), cell viability by WST-8 assay, HT22 cell line; format: cell-based, mouse; settings: with 4 mM glutamic acid, FIG. 4
Description: as §1

[6] = test system: lipid peroxy radicals (LOO·); test: Scavenging ability against lipid peroxy radicals, AA/LOX system using NBD-Pen fluorescence probe; format: biochemical; settings: 100 μM test substance; AA and LOX, PBS pH 7.4, 37° C.; vs absence of test substance; FIG. 6
Procedure: The scavenging ability against lipid peroxy radicals (LOO·) was analyzed by the AA/LOX system using an NBD-Pen fluorescence probe in accordance with the method in “Nat Chem Biol 12:608-613, 2016.” Specifically, a mixture solution of 0.1% DMSO or 100 μM each of four different test substances (vitamin K1 [manufactured by FUJIFILM Wako Pure Chemical Corporation], vitamin K2 [menaquinone-4; manufactured by Sigma-Aldrich], menadione [manufactured by Sigma-Aldrich], or vitamin K3 hydroquinone [manufactured by Toronto Research Chemicals]) and PBS (pH 7.4) containing 500 μM arachidonic acid (manufactured by Sigma-Aldrich) and 1 mM dithiothreitol (DTT) was prepared and added to a 96-well plate, then 5 μM NBD-Pen fluorescence probe and 10 μg/mL LOX solution (manufactured by Sigma-Aldrich) were added, and the fluorescence level (excitation light, 470 nm; fluorescence wavelength, 530 nm) was measured using a microplate reader (Spectra Max M2e; manufactured by Molecular Devices) at 37° C. […] In the AA/LOX system using an NBD-Pen fluorescence probe, an oxidation reaction of AA by LOX produces a lipid peroxide (LOOH), a lipid peroxy radical (LOO·) is produced from the produced LOOH by Fenton reaction using an iron ion (Fe^2+) as a catalyst, and a scavenging ability against lipid peroxy radicals is detected using the level of NBD-Pen-derived fluorescence produced by a reaction of the produced lipid peroxy radical with NBD-Pen as an indicator.

[7] = test system: AHI model mice; test: In vivo analysis using acute hepatic injury (AHI) model mice (LPS and D-GalN); set-up: species or system mouse; settings: oral 20 mg/kg at 12 h and 2 h before LPS and D-GalN, vs AHI/solvent treatment group
Procedure: An AHI model mouse was prepared by administering lipopolysaccharide (LPS) and D-galactosamine (D-GalN). Specifically, eight to nine week-old wild-type male mice (C57BL/6N; manufactured by CLEA) were divided into three groups (the wild type group [n=4], the AHI/solvent treatment group [n=7], and the AHI/VK2 treatment group [n=8]). At 12 hours and two hours before administration of LPS and D-GalN, 0.5% methylcellulose solution (solvent) was orally administered at a dose of 20 mg/kg (body weight) to the AHI/solvent treatment group, and a methylcellulose solution containing vitamin K2 (menaquinone-4) was orally administered at a dose of 20 mg (vitamin K2)/kg (body weight) to the AHI/VK2 treatment group. For LPS and D-GalN administration, PBS containing LPS and D-GalN was injected into the peritoneal cavity at a dose of 5 μg (LPS)/kg (body weight) and 500 mg (D-GalN)/kg (body weight) to the two AHI groups (that is, the AHI/solvent treatment group and the AHI/VK2 treatment group) (refer to “Sci Rep 7:1884, 2017”). The mice were sacrificed at six hours after injection, and blood and liver tissue were collected. The plasma GPT levels were measured for the collected blood using Fuji Dri-chem Slide GPT/ALT-P III (manufactured by Fujifilm Medical). Further, the collected liver tissue was fixed in 10% neutral buffered formalin and embedded in paraffin. The paraffin-embedded liver tissue was sliced to prepare liver tissue sections and subjected to hematoxylin and eosin (HE) staining. Further, deparaffinization treatment was performed by heating the liver tissue sections in a 0.01 M citric acid buffer solution (pH 6.0) at 120° C. for five minutes to prepare deparaffinized liver tissue sections. Immunohistological staining of the deparaffinized liver tissue sections using an anti-HEL antibody (50-fold diluted; clone 5F12; manufactured by JaICA) was performed in accordance with a usual method using a streptavidin-biotin-alkaline phosphatase kit (Histofine SAB-AP [M] kit; manufactured by Nichirei Corporation) and Vector Red Substrate kit (manufactured by Vector Laboratories). Further, dead cells were detected by the TUNEL method using Apop Tag Peroxidase In Situ Apoptosis Detection Kit (manufactured by Merck Millipore).

| SMILES | decrease in the cell viability level caused by ferroptosis inducer ([1]; 1 μM test substance) | NBD-Pen fluorescence signal level (scavenging of lipid peroxy radicals) [6] | cell viability level compared with ferroptosis inducer alone ([1]; 10 μM test substance) | decrease in the cell viability level caused by ferroptosis inducer ([1]; 10 μM test substance) | decrease in the cell viability level caused by ferroptosis inducer ([2]; 10 μM test substance) | decrease in the cell viability level caused by ferroptosis inducer ([3]; 10 μM test substance) | decrease in the cell viability level caused by ferroptosis inducer ([4]; 10 μM test substance) | decrease in the cell viability level caused by ferroptosis inducer ([5]; 10 μM test substance) | also measured |
| --- | --- | --- | --- | --- | --- | --- | --- | --- | --- |
| CCOC(=O)c1ccc(NC2CCCCC2)c(N)c1 [ferrostatin 1] | – | – | – | – | – | – | – | – | cell viability level compared with ferroptosis inducer alone ([1]; 0.3 μM test substance): significantly increased; decrease in the cell viability level caused by ferroptosis inducer ([1]; 0.3 μM test substance): significantly suppressed |
| CC1=CC(=O)c2ccccc2C1=O [menadione, Menadione] | significantly suppressed | decreased | – | – | – | – | – | – | cell viability level compared with ferroptosis inducer alone ([1]; 3 μM test substance): significantly increased; decrease in the cell viability level caused by ferroptosis inducer ([2]; 3 μM test substance): significantly suppressed; decrease in the cell viability level caused by ferroptosis inducer ([3]; 3 μM test substance): significantly suppressed; decrease in the cell viability level caused by ferroptosis inducer ([4]; 3 μM test substance): significantly suppressed; decrease in the cell viability level caused by ferroptosis inducer ([5]; 3 μM test substance): significantly suppressed |
| CC1=C(C/C=C(\C)CCCC(C)CCCC(C)CCCC(C)C)C(=O)c2ccccc2C1=O (centres unmarked) [vitamin K1, Phylloquinone] | – | decreased | significantly increased | significantly suppressed | significantly suppressed | significantly suppressed | significantly suppressed | significantly suppressed | – |
| CC(C)=CCCC(C)=CCCC(C)=CCC/C(C)=C/CC1=C(C)C(=O)c2ccccc2C1=O [vitamin K2, Menaquinone-4 (MK-4)] | – | decreased | significantly increased | significantly suppressed | significantly suppressed | significantly suppressed | significantly suppressed | significantly suppressed | HEL detection level in liver tissue (lipid peroxide marker) ([7]; FIG. 5A): substantially decreased; severe hemorrhage in the liver tissue (HE staining) ([7]; FIG. 5A): relieved; plasma GPT level ([7]; FIG. 5B): significantly decreased; proportion of dead cells in liver tissue (TUNEL method) ([7]; FIGS. 5A and 5C): significantly decreased |
| Cc1cc(O)c2ccccc2c1O [vitamin K3 hydroquinone, Menadiol] | significantly suppressed | decreased | – | – | – | – | – | – | – |
